# Source: paper PMC8025302, “Structural and biophysical characterization of the tandem substrate-binding domains of the ABC importer GlnPQ” (Open Biology, 2021)
# Values joined by “and” are separate entries in the source; they are usually repeats but may differ in a detail not shown here. Identical values can stand only once.
# Assays:
# [1] = molecular target: SBD1 within the tandem SBD1-2 (Lactococcus lactis, UniProt Q9CES5); experiment: Isothermal titration calorimetry, SBD1 site of tandem SBD1-2; type: binding; details: SBD1 within tandem SBD1-2; ITC, 25°C, pH 6.0
# Procedure: (§1) ITC experiments were performed as described previously. Briefly, the purified SBDs were dialysed overnight against 50 mM KPi (pH 6.0), 1 mM EDTA and 1 mM NaN3. Isothermal titration experiments were carried out using an ITC-200 (MicroCal, GE Healthcare, Buckinghamshire, UK). For these experiments, the substrate was prepared in the dialysis buffer to minimize mixing effects. All experiments were carried out at 25°C and a mixing rate of 1000 r.p.m. The concentration of SBD1 and SBD2 and associated tandem mutants varied between 20 and 100 µM during the experiment, depending on the expected KD of the protein under investigation. For titration experiments with asparagine typically the concentration of ligand in the syringe was 8–10× the concentration in the cell. […] The recorded data was approximated by a one- respectively two-site binding model and fitted using the nonlinear curve-fitting tool provided by ORIGIN 8 (Origin Lab Corp., Northhampton, MA) to describe the molar enthalpy change ΔH for protein–ligand complex formation, the stoichiometry n and the corresponding association constant KA. […] The molar entropy change ΔS was calculated from ΔG = ΔH − TΔS. […] For analysing the glutamine binding to SBD1-Δ5-SBD2, which features two binding sites, we first determined the parameters for the single site using the conditions of asparagine binding to SBD1. […]
# [2] = tested on: tandem SBD1-2 wild-type protein; experiment: Differential scanning calorimetry, thermostability of tandem with ligand; type: binding, Lactococcus lactis; details: DSC; unliganded 59°C
# Procedure: Furthermore, we verified the stability of the proteins using differential scanning calorimetry (DSC) by analysing thermostability and potential differences in folding of wild-type SBD1-2 and linker mutants (figure 6b,c; electronic supplementary material, table S7). In the unliganded state, the melting temperature of both single SBDs was 59°C [41], which is the same for all tandem SBD1-2 mutants. The addition of either asparagine or glutamine increased the protein stability of the tandem resulting in a higher melting temperature of approximately 62°C for SBD1 and greater than or equal to 69°C for SBD2. […] We assign the peak shifts to a specific SBD by comparing the melting temperatures of the tandem SBD1-2 to that of the single SBDs. […] We find that linker deletions of 5 and 8 amino acids increase the stability of the proteins by 2–3°C. Maximal stabilization of SBD2 in SBD1-2 tandems is observed in the presence of glutamine, […] (figure 6c).
# To determine the proteins thermal stability, DSC experiments were performed as described previously. Briefly, the purified SBDs were dialysed overnight against the DSC working buffer, i.e. 50 mM KPi (pH 7.0), 150 mM KCl, 1 mM EDTA and 1 mM NaN3. DSC experiments with working buffer solutions containing 4 µM of an SBD-mutant and 5 mM substrate were conducted on a VP-DSC Calorimeter (MicroCal, GE Healthcare, Buckinghamshire). The melting temperature Tm was determined by ORIGIN 8 (Origin Lab Corp, Northampton, MA).
# [3] = molecular target: SBD1 of GlnPQ (isolated domain); design: method as in PMID 23994008; details: ITC; cited from earlier work
# [4] = molecular target: SBD2 within the tandem SBD1-2 (Lactococcus lactis, UniProt Q9CES5); experiment: Isothermal titration calorimetry, SBD2 site of tandem SBD1-2; type: binding; details: ITC
# Procedure: as §1
# [5] = molecular target: SBD2 of GlnPQ (isolated domain); design: method as in PMID 23994008; details: ITC; cited from earlier work
# SBD1 within the tandem SBD1-2, sequence (Q9CES5 entry or part of it): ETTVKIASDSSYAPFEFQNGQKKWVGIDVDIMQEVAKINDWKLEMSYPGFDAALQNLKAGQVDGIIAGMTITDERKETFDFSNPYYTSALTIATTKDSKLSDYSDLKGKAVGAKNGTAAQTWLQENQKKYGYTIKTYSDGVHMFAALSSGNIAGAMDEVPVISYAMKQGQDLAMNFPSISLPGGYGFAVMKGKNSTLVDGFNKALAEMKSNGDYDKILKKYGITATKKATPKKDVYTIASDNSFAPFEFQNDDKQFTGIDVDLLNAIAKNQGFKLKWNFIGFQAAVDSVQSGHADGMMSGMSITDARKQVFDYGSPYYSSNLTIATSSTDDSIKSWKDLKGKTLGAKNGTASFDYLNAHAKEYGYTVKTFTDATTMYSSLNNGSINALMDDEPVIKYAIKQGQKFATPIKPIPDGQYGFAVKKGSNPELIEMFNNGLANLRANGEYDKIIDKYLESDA
# SBD2 within the tandem SBD1-2, sequence (Q9CES5 entry or part of it): as above
SMILES,Kd [1],melting temperature of SBD1 in the tandem after addition of ligand [2],melting temperature of SBD2 in the tandem after addition of ligand [2],Kd [3],"Kd ([4]; SBD2 within tandem SBD1-2, SBD1 blocked with 1 mM asparagine)","Kd ([4]; SBD2 within tandem SBD1-2, no asparagine, 25°C, pH 6.0)",Kd [5]
NC(=O)C[C@H](N)C(=O)O [asparagine],400 ± 100 nM,approximately 62 °C,greater than or equal to 69 °C,200 nM,–,–,–
NC(=O)CC[C@H](N)C(=O)O [glutamine],180000 nM and ~100000 nM,approximately 62 °C,greater than or equal to 69 °C,90000 nM,900 nM,600 ± 200 nM,~900 nM
